SMILES	melting point [°C]
CCOC(=O)COc1ccccc1C(=O)O	100 to 102
O=C(CCl)NCC(=O)Nc1ccccc1Br	218 to 220
CC(C)(C)OC(=O)N(CC(=O)O)c1ccccc1	84 to 86
CC(Cl)C(=O)Nc1ccnn1C(C)C (configuration not stated)	69 to 71
CC(C(=O)O)n1nnc(-c2ccccc2)n1 (configuration not stated)	143 to 145
COc1ccccc1OCC(=O)NN	101 to 103
Cc1cc(C(=O)NC2CCCC2)ccc1N	146 to 148
Cc1c(C(=O)O)cnn1C1CCCC1	99 to 101
COc1ccc(COCC(=O)O)cc1	41 to 43
CCOC(=O)C1=C(C)NC(C)=C(C(=O)O)C1c1cccc([N+](=O)[O-])c1 (configuration not stated)	199 to 201
O=c1[nH]c2ccc(I)cc2o1	209 to 211
N#CCn1cc(N)cn1	71 to 73
O=C(O)c1ccc(Cl)c(S(=O)(=O)Nc2ccccc2N2CCOCC2)c1	178 to 180
Cc1noc(C)c1CNC(=O)CCl	79 to 81
CN(C)S(=O)(=O)c1cc(C(=O)O)ccc1Br	257 to 259
COc1ccccc1SCC(=O)O	99 to 101
Nc1cccc(OCc2ccc(Cl)cc2)c1	87 to 89
NC(Cn1cncn1)c1ccccc1 (configuration not stated)	87 to 89
O=C(O)c1csc(-c2ccccc2Cl)n1	192 to 194
O=C(O)c1cccc(Oc2ccc(Cl)cc2)c1	164 to 166
CCOC(=O)c1ccn(C)c(=O)c1	91 to 93
O=C(O)c1cc2sc3ccccc3c2s1	249 to 251
NCCc1ccc(OCC(N)=O)cc1	96 to 98
O=C(O)c1csc(-c2ccc3c(c2)OCO3)n1	222 to 224

SMILES	melting point [°C]
COc1ccc(-c2nnc(N)s2)cc1	185 to 187
CC(=O)c1ccc(OC(C)C(=O)O)cc1 (configuration not stated)	158 to 161
CCC(C)n1nccc1N (configuration not stated)	30 to 32
COc1ccc(C2CNC(=O)C2)cc1 (configuration not stated)	126 to 128
CC1=CC(=O)N(c2ccccc2F)C1=O	83 to 85
O=C(O)c1cc2c(s1)CCOC2	148 to 150
Cc1cc(Br)cc(C=O)c1O	68 to 70
O=C(Nc1cccc2cccnc12)OCC(F)(F)F	75 to 77
CCC(=O)Nc1cc2ccccc2cc1C(=O)O	234 to 236
Cc1cc(C)c(C(=O)CCl)c(C)c1	68 to 70
Cn1cc(S(=O)(=O)Cl)cc1C(N)=O	132 to 134
CS(=O)(=O)Nc1ccc(N)c(Cl)c1	129 to 131
CC(C)(C(N)=O)c1ccc(N)cc1	122 to 124
O=C1CCc2c(F)ccc(F)c21	117 to 119
O=C1COc2ccc(Br)cc2N1CCCl	117 to 119
Nc1cccc(C2SCCCS2)c1	140 to 142
NS(=O)(=O)c1ccc(C(F)(F)F)cn1	174 to 176
CN1CC(=O)Nc2ccccc2C1=O	249 to 251
COc1ccccc1C(=O)NC(=O)CCl	118 to 120
Nc1ccc(CN2C(=O)CSC2=O)cc1	134 to 136
CCN(Cc1ccccc1)c1ccc(C(=O)O)cc1	183 to 185
O=C(CN1CCNCC1)N1CCCCC1	83 to 85
CN(C)S(=O)(=O)c1cccc(S(=O)(=O)Cl)c1	97 to 99
CCNC(=O)NC1CCC(O)CC1 (configuration not stated)	36 to 39

SMILES	melting point [°C]
CC1CCC(NC(=O)OC(C)(C)C)(C(=O)O)CC1 (configuration not stated)	151 to 153
O=C(O)CCNC(=O)C1CCCCC1	125 to 127
Cc1cc(C(=O)O)nn1-c1ccc(Cl)c(Cl)c1	219 to 221
Cc1c[nH]c(=O)n1-c1ccc(F)c(F)c1	250 to 252
Brc1nn2cc(-c3cccnc3)nc2s1	230 to 232
NC(=O)c1ncon1	156 to 158
O=C(O)c1cc(S(=O)(=O)N2CCOCC2)ccc1Br	188 to 190
COc1ccc(-n2nc(C(=O)O)cc2C)cc1	149 to 151
CN1CC(=O)N(c2cccc([N+](=O)[O-])c2)C1=O	144 to 146
CC(C)(CC(=O)c1ccc(Cl)cc1)C(=O)O	147 to 149
NS(=O)(=O)CC1CCOCC1	85 to 87
NC1CCC2SCCSC12 (configuration not stated)	49 to 51
COc1ccc2cc(C(N)=S)ccc2c1	188 to 190
O=C(O)CCc1cscn1	156 to 158
CC(=O)Nc1ccc(Oc2nc3ccccc3o2)cc1	164 to 166
CC(C)C(=O)CNC(=O)c1ccc([N+](=O)[O-])cc1	106 to 108
CS(=O)c1nnc[nH]1 (configuration not stated)	119 to 121
O=C(O)CCCc1nc2ccccc2c(=O)[nH]1	269 to 271
COC(=O)c1c[nH]c2ncccc12	208 to 210
O=C(CCl)N1CCN(S(=O)(=O)c2ccc(Cl)s2)CC1	240 to 245
O=C(O)CC(c1ccccc1)N1CCOC1=O (configuration not stated)	123 to 125
NC(=NO)C1CCCCCC1	87 to 89
O=C(O)c1ccccc1C(=O)c1ccc2c(c1)OCCO2	168 to 170
Sc1nc2ccccc2n1C1CCCCC1	178 to 182

— a melting point compilation (Tetko et al.)
